Data from US6399583B1, “Hybrid anthracyclines from genetically engineered streptomyces galilaeus strains, process for production and uses thereof” (Galilaeus Oy, priority 1998, dated 2002).

Tests used:
B16-F0 melanoma = test: Cytotoxicity assay, ATP detection, B16-F0; type: cell-based, mouse; settings: B16-F0 cells in vitro; read-out: ED50 B16-F0
Procedure: (§1) The cytotoxicity tests were performed in 96-well microtiter plates (sterile white plates with clear bottom, Corning Costar Corporation, Cambridge, Mass., USA). The anthracyclines were pipetted into the plates in 10 μl of ethanol, pure ethanol was used for control plates. Daunorubicin and aclarubicin were used as positive controls. When the ethanol had evaporated, the cells were seeded into the plates in 100 μl of appropriate medium. The number of cells seeded per well was 2500 with MES-SA, 3000 with MES-SA/D×5, 3000 with LL/2, 2000 with B16-F0 and B16-F1, 2000 with KLN-205 and 8000 with MLTC-1. The ATP content of the cells was measured after incubating the cells for three days at 37° C. with 5% CO2.
(§2) The growth medium was removed by turning the plates over, and 200 μl of ATP extraction reagent, Somalyze, were added to the wells. The plates were then incubated for 30 minutes at room temperature. The ATP measurement was performed with Luminoskan luminometer (Labsystems Oy, Helsinki, Finland) at 22° C. 20 μl of ATP monitoring reagent containing luciferin and luciferase was dispensed, and an integral measurement of 10 s with 2 s lag time was performed for each well. All reagents used were supplied by Bio-Orbit Oy, Turku, Finland.
(§3) The direct luminometer output (in relative light units, RLUS) was used to calculate the cytotoxic effect. This light signal is directly proportional to the amount of […] in a wide range (determined with Bio-Orbit ATP standard, data not shown). On the other hand, the amount of ATP is directly proportional to the amount of living cells (Kangas et al., 1984). The results are expressed as percentages of the control value of untreated cells. An IC50 value (the drug concentration resulting to an ATP signal of 50% of the untreated control signal) was graphically estimated from the % of control vs. drug concentration plot.
(§4) H075-4a was also tested with several mouse cell lines in vitro (all were purchased from ATCC, Rockville, Md., USA): Lewis lung carcinoma (LL/2) (CRL-1642), B16-F0 melanoma (CRL-6322), B16-F1 melanoma (CRL-6323), KLN-205 lung squamous cell carcinoma (CRL-1453) and MLTC-1 leydig cell tumor (CRL-2065) using daunomycin, aclarubicin and H075-1a (MA 144U1) as references.
(§5) All cells grew as monolayers and were cultured at 37° C. with 5% CO2 according to ATCC standard instructions for each cell line: LL/2 in Dulbecco's modified Eagle's medium with 4.5 g/l glucose and 10% FCS, B16-F0 and B16-F1 in MEM (Eagle) in Earle's BSS with non-essential amino acids and 10% FCS, KLN-205 in MEM (Eagle) in Earle's BSS with non-essential amino acids and 10% FCS, MLTC-1 in RPMI 1640 with 25 mM HEPES and 10% FBS. All media were purchased from Gibco BRL, the serum was Gibco BRL Foetal Bovine Serum. […]

[1] = tested on: Lewis lung carcinoma (LL/2); test: Cytotoxicity assay, ATP detection, LL/2; type: cell-based, mouse; settings: LL/2 cells in vitro; read-out: ED50 LL/2
Procedure: as §1, §2, §3, §4, §5

MLTC-1 leydig cell tumor = test: Cytotoxicity assay, ATP detection, MLTC-1; type: cell-based, mouse; settings: MLTC-1 cells in vitro; read-out: ED50 MLTC-1
Procedure: as §1, §2, §3, §4, §5

[2] = tested on: MES-SA human uterine sarcoma cells; test: Cytotoxicity assay, luminescence ATP detection, MES-SA; type: cell-based; settings: three days incubation, ATP content, highest concentration 10^-5 M, read-out: ED50 (nM) MES-SA
Procedure: (§6) The cytotoxicities of the new anthracyclines were tested in vitro with two cell lines: human uterine sarcomas MES-SA (CRL-1976; American Type Culture Collection (ATCC), Rockville, Md., USA) and MES-SA/D×5 (CRL-1977; ATCC, Rockville, Md., USA). MES-SA/D×5 has been developed by growing MES-SA cells in increasing concentrations of doxorubicin (Harker and Sikic, 1985).
(§7) Monolayer cultures were grown in McCoy's 5A medium with L-glutamine (Gibco BRL) supplemented with 10% FBS (Foetal Bovine Serum, Gibco BRL). No antibiotics were added. As the resistance is stable for at least 20 passages, the MES-SA/D×5 cells were grown without anthracycline selection (Harker and Sikic, 1985). Cells were maintained at 37° C. with 5% CO2 and subcultured every 3-5 days.
as §1, §2, §3

[3] = tested on: KLN-205 lung squamous cell carcinoma; test: Cytotoxicity assay, ATP detection, KLN-205; type: cell-based, mouse; settings: KLN-205 cells in vitro; read-out: ED50 KLN-205
Procedure: as §1, §2, §3, §4, §5

B16-F1 melanoma = test: Cytotoxicity assay, ATP detection, B16-F1; type: cell-based, mouse; settings: B16-F1 cells in vitro; read-out: ED50 B16-F1
Procedure: as §1, §2, §3, §4, §5

SK-N-MC = test: Cytotoxicity assay, ATP detection, SK-N-MC; type: cell-based; settings: SK-N-MC cells in vitro; read-out: ED50 SK-N-MC
[4] = tested on: MES-SA/D×5 uterine sarcoma cells (doxorubicin-resistant, MDR); test: Cytotoxicity assay, luminescence ATP detection, MES-SA/D×5; type: cell-based, human; settings: MES-SA/D×5 cells, three days incubation, ATP content; highest concentration 10^-5 M; read-out: ED50 (nM) MES-SA/D × 5
Procedure: as §6, §7, §1, §2, §3

P388 leukemia = test: Cytotoxic activity in vivo: P388 leukemia model; design: species or system mice; settings: 10^6 P388 cells i.p. day 0
Description: P388 leukemia was maintained by serial intraperitoneal (i.p.) transplantations in DBA/2JBom female mice purchased from M & B A/S, Ry, Denmark. The animals were maintained at the facilities of Central Animal Laboratory, University of Turku. The management of the animal unit is based on and followed the guidelines: “European Convention for the protection of Vertebrate Animals used for Experimental and other Scientific Purposes, European Treaty Series No. 123 (EU No. 609/86), Official Journal of European Communities No. L 358, Strasbourg Nov. 24, 1986”, and “The Statute No. 1360/90 of the Finnish Law, Helsinki Dec. 21, 1990: Asetus kokeellisiin ja muihin tieteellisiin tarkoituksiin käytettävien selkärankaisten eläinten suojelemiseksi tehdyn eurooppalaisen yleissopimuksen voimaansaattamisesta. Suomen s{umlaut over (aa)}doskokoelma.”
The in vivo tests were started by injecting 10^6 P388 cells suspended in Dulbecco's phosphate buffered saline i.p. in mice on day 0. Groups of 3 mice were used. The drugs were administered i.p. on day 1 on the basis of individual body weight. The control group received vehicle (10% ethanol in Dulbecco's phosphate buffered saline).

Structure (SMILES) | EC50 [2] [nM] | EC50 [4] [nM] | other results
CCC1(O)CC(OC2CC(N(C)C)C(OC3CC(O)C(OC4CC(O)C(O)C(C)O4)C(C)O3)C(C)O2)c2c(cc3c(c2O)C(=O)c2c(O)cccc2C3=O)C1C(=O)OC (stereo not drawn) [Akv-Rhn-dF-dF, aklavinone-rhodosamine-2-deoxyfucose-2-deoxyfucose] | 6 | 540 | EC50 (B16-F0 melanoma): 14 nM; EC50 [1]: 38 nM; EC50 (MLTC-1 leydig cell tumor): 600 nM; EC50 [3]: 90 nM; EC50 (B16-F1 melanoma): 12 nM; EC50 (SK-N-MC): 30 nM
CCC1(O)CC(OC2CC(N(C)C)C(OC3CC(O)C(OC4CC(O)C(O)C(C)O4)C(C)O3)C(C)O2)c2c(cc3c(c2O)C(=O)c2c(O)cccc2C3=O)C1O (stereo not drawn) [Compound H075-2a] | 3200 | > 10000 | –
CCC1(O)CC(OC2CC(N(C)C)C(OC3CC(O)C(O)C(C)O3)C(C)O2)c2c(cc3c(c2O)C(=O)c2c(O)cccc2C3=O)C1O (stereo not drawn) [Compound H075-2b] | 400 | > 10000 | –
CCC1(O)CC(OC2CC(O)C(OC3CC(O)C(OC4CC(O)C(O)C(C)O4)C(C)O3)C(C)O2)c2c(cc3c(c2O)C(=O)c2c(O)cccc2C3=O)C1O (stereo not drawn) [Compound H075-2d] | > 10000 | > 10000 | –
COC(=O)C1c2cc3c(c(O)c2C(OC2CC(O)C(OC4CC(O)C(OC5CC(O)C(O)C(C)O5)C(C)O4)C(C)O2)CC1(C)O)C(=O)c1c(O)cccc1C3=O (stereo not drawn) [Compound H075-3d] | > 10000 | > 10000 | –
COC(=O)C1c2c(O)c3c(c(O)c2C(OC2CC(O)C(OC4CC(O)C(O)C(C)O4)C(C)O2)CC1(C)O)C(=O)c1c(O)cccc1C3=O (stereo not drawn) [Compound H075-5e] | 5200 | > 10000 | –
CC1OC(OC2C(C)OC(OC3CC(C)(O)C(O)c4cc5c(c(O)c43)C(=O)c3c(O)cccc3C5=O)CC2N(C)C)CC(O)C1O (stereo not drawn) [Compound H075-6b] | 200 | > 10000 | –
CC1OC(OC2CC(C)(O)C(O)c3cc4c(c(O)c32)C(=O)c2c(O)cccc2C4=O)CC(N(C)C)C1O (stereo not drawn) [Compound H075-6c] | 4200 | > 10000 | –
CCC1(O)Cc2cc3c(c(O)c2C(OC2CC(N(C)C)C(OC4CC(O)C(OC5CC(O)C(O)C(C)O5)C(C)O4)C(C)O2)C1)C(=O)c1c(O)cccc1C3=O (stereo not drawn) [Compound H075-8a] | 130 | > 10000 | –
CCC1(O)CC(OC2CC(N(C)C)C(OC3CC(O)C(OC4CC(O)C(O)C(C)O4)C(C)O3)C(C)O2)c2c(O)c3c(c(O)c2C1O)C(=O)c1cccc(O)c1C3=O (stereo not drawn) [Compound H075-10a] | 30 | 1300 | Median survival days (range) (P388 leukemia; 4 mg/kg i.p. on day 1): 15 (14-17) days; Median survival days (range) (P388 leukemia; 8 mg/kg i.p. on day 1): 14 (13-15) days; Median survival days (range) (P388 leukemia; 16 mg/kg i.p. on day 1): 14 (14-15) days
CC1OC(OC2C(C)OC(OC3CC(C)(O)C(O)c4c(O)c5c(c(O)c43)C(=O)c3c(O)cccc3C5=O)CC2N(C)C)CC(O)C1O (stereo not drawn) [Compound H075-11b] | 60 | 3500 | Median survival days (range) (P388 leukemia; 4 mg/kg i.p. on day 1): 13 (12-13) days; Median survival days (range) (P388 leukemia; 8 mg/kg i.p. on day 1): 14 (13-15) days; Median survival days (range) (P388 leukemia; 16 mg/kg i.p. on day 1): 16 (15-19) days
CC1OC(OC2C(O)CC(OC3CC(C)(O)C(O)c4c(O)c5c(c(O)c43)C(=O)c3c(O)cccc3C5=O)OC2C)CC(O)C1O (stereo not drawn) [Compound H075-11e] | 800 | > 10000 | –
